What was measured:
Format in all cases: in vivo, human
[1] = system: relapsed or refractory Diffuse Large B Cell Lymphoma (DLBCL); experiment: Phase II clinical study with tipifarnib in relapsed or refractory non-Hodgkin's lymphoma patients: DLBCL subjects; design: key to Best Response: a partial response (PR); Stable disease (SD) can be defined as any response not meeting CR, PR, HI, or PD criteria; Progressive disease (PD) can be defined as either >50% increase in lymph node or circulating blast % from baseline, or new appearance of circulating blasts (on at least 2 consecutive occasions)
Description: (§1) A Phase II clinical study with tipifarnib was performed in relapsed or refractory non-Hodgkin's lymphoma patients (N=93), wherein the types of non-Hodgkin's lymphoma included Diffuse Large B Cell Lymphoma (DLBCL) and Mycosis Fungoides (MF). Eligible patients received 300 mg tipifarnib as a single agent orally, twice a day (bid) on days 1-21 of 28 day cycles. Courses were repeated every 28 days in the absence of disease progression or unacceptable toxicity. Primary objective of assessing objective tumor response, in terms of Objective Response Rate (ORR), was determined using the International Workshop Criteria (IWC).
Exclusion Criteria for this clinical study include: (a) pregnant women; (b) breastfeeding women; (c) men or women of childbearing potential or their sexual partners who are unwilling to employ adequate contraception (condoms, diaphragm, birth control pills, injections, intrauterine device [IUD], surgical sterilization, subcutaneous implants, or abstinence, etc.); (d) life-threatening illness (unrelated to tumor); (e) ongoing radiation therapy or radiation therapy ≤3 weeks prior to study registration unless the acute side effects associated with such therapy are resolved; (f) therapy with myelosuppressive chemotherapy, cytotoxic chemotherapy, or biologic therapy ≤3 weeks (6 weeks for nitrosourea or mitomycin C) or corticosteroids ≤2 weeks, prior to starting R11577; patients may be on corticosteroids or tapering off them up until the day they start R11577 as long as it is clear that they are not having a tumor response to the steroids or that the steroids would confuse the interpretation of response to R11577; patients may be receiving stable (not increased within the last month) chronic doses of corticosteroids with a maximum dose of 20 mg of prednisone per day if they are being given for disorders other than lymphoma such as rheumatoid arthritis, polymyalgia rheumatica, adrenal insufficiency, or intractable symptoms of lymphoma; (g) peripheral neuropathy ≥grade 3; (h) serious non-malignant disease such as active infection or other condition which in the opinion of the investigator would compromise other protocol objectives; (i) presence of central nervous system (CNS) lymphoma; (j) other active malignancies; (k) once a patient begins FTI (tipifarnib) treatment, the addition of other cancer treatment will confound the assessment of efficacy and therefore is not allowed; this restriction precludes the addition of cytotoxic, immunologic agents, radiotherapy, or an increase in corticosteroid dose while the patient is in the treatment phase of this protocol; (l) known to be human immunodeficiency virus (HIV) positive; HIV testing is not required but should be done if clinically indicated; HIV patients are excluded because of concerns regarding excess risk of complications of immunosuppressive therapy regimens; and (m) known allergy to imidazole drugs such as clotrimazole, ketoconazole, miconazole, econazole, fenticonazole, sulconazole, tioconazole, or terconazole.
Pre-treatment tumor samples and best response data were obtained from 20 patients (N=20): 6 Diffuse Large B Cell Lymphoma (DLBCL), 6 Hodgkin Lymphoma (HL), 4 Follicular Lymphoma (FL), 1 Marginal Zone B Cell Lymphoma, 1 PTCL NOS, and 2 Mycosis Fungoides (MF). Within these 20 patients, the following objective responses were identified: 3 PRs and 1 SD were reported in DLBCL, 1PR in HL, and 2PRs in MF.
CXCL12, CXCR4, CXCR7, and PRICLKE2, mRNA expression data were generated by RNASeq and expressed as RNA Seq RSEM.

Mycosis Fungoides (MF) = experiment: Phase II clinical study with tipifarnib in relapsed or refractory non-Hodgkin's lymphoma patients: MF subjects
Description: as §1, with “(IWC). […] CXCL12, CXCR4, CXCR7, and […]2, mRNA expression data were generated by RNASeq and expressed as RNA Seq RSEM.” for “(IWC).”

Hodgkin Lymphoma (HL) = experiment: Phase II clinical study with tipifarnib in relapsed or refractory lymphoma patients: HL subjects; settings: among 6 HL patients with pre-treatment tumor samples; 300 mg orally bid days 1-21 of 28 day cycles
Description: as §1, with “(IWC). […]” for “(IWC).”

[2] = among 6 DLBCL patients with pre-treatment tumor samples, 300 mg orally bid days 1-21 of 28 day cycles
[3] = high PRICKLE2 and CXCL12/CXCR4 ratio greater than about 1/10 (about 0.10), out of 6 subjects (FIG. 2B)
[4] = low PRICKLE2 and lower CXCL12/CXCR4 ratio, cut-off about 1/10 (about 0.10), out of 6 subjects (FIG. 2B)
[5] = low PRICKLE2 and lower CXCL12/CXCR4 ratio, cut-off about 3/20 (about 0.15), out of 6 subjects (FIG. 2B)
[6] = low pre-treatment CXCL12 expression levels, out of 6 subjects (FIG. 1A)
[7] = low pre-treatment PRICKLE2 expression levels, out of 6 subjects (FIG. 2A)

**Q.** Which results are given for `Cn1cncc1[C@@](N)(c1ccc(Cl)cc1)c1ccc2c(c1)c(-c1cccc(Cl)c1)cc(=O)n2C` [tipifarnib]?
**A.** Best Response ([1]; DLBCL subject with pre-treatment tumor CXCL12/CXCR7 ratio 1.4, 300 mg orally bid days 1-21 of 28 day cycles): PD; Best Response ([1]; DLBCL subject with pre-treatment tumor CXCL12/CXCR7 ratio 3.5, 300 mg orally bid days 1-21 of 28 day cycles): PD; Best Response ([1]; DLBCL subject with pre-treatment tumor CXCL12/CXCR7 ratio 3.7, 300 mg orally bid days 1-21 of 28 day cycles): SD; Best Response ([1]; DLBCL subject with pre-treatment tumor CXCL12/CXCR7 ratio 6.6, 300 mg orally bid days 1-21 of 28 day cycles): PR; Best Response ([1]; DLBCL subject with pre-treatment tumor CXCL12/CXCR7 ratio 30.8, 300 mg orally bid days 1-21 of 28 day cycles): PR; Best Response ([1]; DLBCL subject with pre-treatment tumor CXCL12/CXCR7 ratio 66.8, 300 mg orally bid days 1-21 of 28 day cycles): PR; Best Response ([1]; Patient 35, DLBCL, pre-treatment tumor CXCL12/CXCR4 ratio 1.280, 300 mg orally bid days 1-21 of 28 day cycles): PR; Best Response ([1]; Patient 38, DLBCL, pre-treatment tumor CXCL12/CXCR4 ratio 0.505, 300 mg orally bid days 1-21 of 28 day cycles): PR; Best Response ([1]; Patient 39, DLBCL, pre-treatment tumor CXCL12/CXCR4 ratio 0.179, 300 mg orally bid days 1-21 of 28 day cycles): PR; Best Response ([1]; Patient 42, DLBCL, pre-treatment tumor CXCL12/CXCR4 ratio 0.122, 300 mg orally bid days 1-21 of 28 day cycles): SD; Best Response ([1]; Patient 43, DLBCL, pre-treatment tumor CXCL12/CXCR4 ratio 0.050, 300 mg orally bid days 1-21 of 28 day cycles): PD; Best Response ([1]; Patient 44, DLBCL, pre-treatment tumor CXCL12/CXCR4 ratio 0.012, 300 mg orally bid days 1-21 of 28 day cycles): PD; Number of PRs (objective responses) [1, 2]: 3; Number of SD (objective responses) [1, 2]: 1; Number of PR responses [1, 3]: 3; Number of SD responses [1, 3]: 1; Number of PR responses ([1]; high PRICKLE2 and CXCL12/CXCR4 ratio greater than about 3/20 (about 0.15), out of 6 subjects (FIG. 2B)): 3; Number of PR responses ([1]; high pre-treatment CXCL12 expression levels, out of 6 subjects (FIG. 1A)): 3; Number of PR responses ([1]; high pre-treatment PRICKLE2 expression levels, out of 6 subjects (FIG. 2A)): 3; Number of PD responses [1, 4]: 2; Number of PR responses [1, 4]: 0; Number of SD responses [1, 4]: 0; Number of PD responses [1, 5]: 2; Number of PR responses [1, 5]: 0; Number of SD responses [1, 5]: 1; Number of PD responses [1, 6]: 2; Number of PR responses [1, 6]: 0; Number of SD responses [1, 6]: 1; Number of PD responses [1, 7]: 2; Number of PR responses [1, 7]: 0; Number of SD responses [1, 7]: 1; Number of PR responses (Mycosis Fungoides (MF); MF patients having high pre-treatment CXCL12 expression levels, out of 2 subjects): 2; Number of PR responses (Mycosis Fungoides (MF); MF, low pre-treatment CXCL12 expression levels, out of 2 subjects): 0; Number of PRs (objective responses) (Mycosis Fungoides (MF); among 2 MF patients with pre-treatment tumor samples, 300 mg orally bid days 1-21 of 28 day cycles): 2; Number of PRs (Mycosis Fungoides (MF); two MF subjects with CXCL12/CXCR4 expression ratio of 0.6 and 2.0, out of 2 subjects): 2; Number of PR (objective responses) (Hodgkin Lymphoma (HL)): 1

Reference: patent US20220168296A1, “METHODS OF TREATING CANCER WITH FARNESYLTRANSFERASE INHIBITORS” (Kura Oncology, Inc., priority 2019, published 2022)
